# Data from the supplement of paper PMC10307832.
# Assays:
# Assay in all cases: relative viability (nuclei count vs DMSO), 5 days (fraction); higher = more cells survive
# IPA-3 = compound: C1=CC=C2C(=C1)C=CC(=C2SSC3=C(C=CC4=CC=CC=C43)O)O [IPA-3]
# Method in brief: (§1)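 Cells of lung cancer lines were placed in 1536-well plates and kept overnight at 37 °C. Pinning then delivered five library-drug doses (not always all listed), spaced by √10, onto plates anchored with vehicle, and the cells were left 5 days without changing medium. One step fixed, permeabilised and stained them with Hoechst, and MetaXpress counted nuclei in 4× images. Viability, as a median over plates, is treated-well nuclei divided by vehicle-well nuclei, with acceptance only at control CV below 25% and at least one doubling.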
# Doramapimod = compound: Cc1ccc(-n2nc(C(C)(C)C)cc2NC(=O)Nc2ccc(OCCN3CCOCC3)c3ccccc23)cc1 [Doramapimod]
# Method in brief: as §1
# RAF265 = compound: Cn1c(Nc2ccc(C(F)(F)F)cc2)nc2cc(Oc3ccnc(-c4ncc(C(F)(F)F)[nH]4)c3)ccc21 [RAF265]
# Method in brief: as §1
# IPA-3 + Foretinib = compound: C1=CC=C2C(=C1)C=CC(=C2SSC3=C(C=CC4=CC=CC=C43)O)O [IPA-3] + COc1cc2c(Oc3ccc(NC(=O)C4(C(=O)Nc5ccc(F)cc5)CC4)cc3F)ccnc2cc1OCCCN1CCOCC1 [Foretinib] (partner 0.25 µM)
# Method in brief: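 One day after seeding in 1536-well plates, lung cancer cell lines were dosed by pin tool. Dosing was either single-drug or a fixed anchor-drug dose plus five library-drug doses (not always all listed) in √10 steps. After 5 days, nuclei were stained in one fix-and-stain step and counted on 4× images, and relative viability is the nuclei count of treated wells over that of vehicle wells, given as the median of duplicate plates.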
Cell Line,relative viability (IPA-3; 0.2 µM),relative viability (IPA-3; 0.6325 µM),relative viability (IPA-3; 2 µM),relative viability (IPA-3; 6.325 µM),relative viability (IPA-3; 20 µM),relative viability (Doramapimod; 0.02 µM),relative viability (Doramapimod; 0.06325 µM),relative viability (Doramapimod; 0.2 µM),relative viability (Doramapimod; 0.6325 µM),relative viability (Doramapimod; 2 µM),relative viability (RAF265; 0.01 µM),relative viability (RAF265; 0.03162 µM),relative viability (RAF265; 0.1 µM),relative viability (RAF265; 0.3162 µM),relative viability (RAF265; 1 µM),relative viability (IPA-3 + Foretinib; first compound 0.2 µM),relative viability (IPA-3 + Foretinib; first compound 0.6325 µM),relative viability (IPA-3 + Foretinib; first compound 2 µM),relative viability (IPA-3 + Foretinib; first compound 6.325 µM),relative viability (IPA-3 + Foretinib; first compound 20 µM)
NCI-H2228,1.44,0.864,1.04,1.05,1.02,1.13,0.988,1.02,1.07,0.795,0.967,0.89,0.926,0.498,0.309,0.979,0.805,0.842,1.07,1.22
LU99A,1.02,0.89,0.932,0.919,0.98,0.944,0.906,1.03,1,0.949,0.971,0.987,0.705,0.492,0.373,0.877,0.734,0.687,0.763,0.921
NCI-H1437,1.13,1.01,0.994,1.04,1.08,1.05,1.05,0.985,1.07,0.948,1.02,0.99,1.01,1.03,0.954,1.37,1.23,1.32,1.2,1.35
EKVX,1.08,0.994,1.05,1.01,1.32,0.971,0.968,0.876,1,0.952,1.11,0.988,1.09,0.573,0.796,0.775,0.668,0.895,0.893,1.21
IA-LM,1.15,0.758,1.03,0.876,0.892,0.921,0.977,0.906,0.982,0.913,0.941,0.855,0.91,0.801,0.755,1.24,0.989,1.16,1.05,1.23
ABC-1,1.08,0.972,0.805,1.04,1.02,0.996,0.864,0.955,0.895,0.961,1.22,0.881,0.986,0.803,0.633,1.06,1.13,1,1.17,1.19
NCI-H520,1.07,0.888,0.916,1.03,0.929,0.943,0.933,0.941,0.88,0.868,1.11,0.869,1.03,1.02,0.614,0.885,0.757,0.743,0.613,0.837
NCI-H1703,1.27,0.86,1.02,0.935,1.04,0.923,0.918,0.876,1.11,0.612,0.783,0.792,0.831,0.652,0.352,0.295,0.339,0.331,0.349,0.391
LCLC-97TM1,1.04,0.868,0.851,0.908,0.981,0.916,1.04,0.961,0.811,0.86,1.04,0.899,0.531,0.637,0.418,0.958,0.928,0.915,0.861,0.958
NCI-H2170,1.08,1.01,0.999,0.878,0.988,0.923,0.98,0.996,0.972,0.943,0.957,0.896,0.877,0.755,0.716,1.03,0.942,1.04,0.948,1.13
NCI-H1793,1.14,0.768,0.884,1.09,1.04,0.894,0.843,0.896,0.94,0.884,1.1,0.856,0.731,0.321,0.48,0.918,0.67,0.656,0.757,1.05
NCI-H3122,1.02,0.98,0.981,1.04,0.999,0.995,1,0.995,0.989,1,1.02,1.1,1.05,0.885,0.943,1.01,0.958,0.941,0.955,1.06
PC-14,1.16,0.963,0.936,0.898,1.09,1.06,0.998,0.968,1.14,0.933,1.02,0.967,1.1,–,0.845,1.07,0.938,0.941,0.874,1.07
EPLC-272H,1.04,0.96,1,0.905,1.1,0.929,0.899,1.01,0.7,0.837,0.895,0.734,0.688,0.469,0.356,0.901,0.639,0.655,0.795,0.857
A-427,1.14,0.965,0.976,0.962,1.11,0.962,1.03,1.1,–,0.985,1.03,0.862,1.01,0.575,0.356,1.1,1.08,1.11,1.06,1.14
